This note sets out measurements from patent US20240226106A1, “INHIBITORS OF PLASMA KALLIKREIN” (SHIRE HUMAN GENETIC THERAPIES, INC., priority 2021, published 2024).

Read-outs that look alike come from different tables or passages of the source. Bounds are passed on as bounds.

Experiment [1] has as its target human activated kallikrein enzyme (Homo sapiens, UniProt P03952). Briefly: Inhibition of human activated plasma kallikrein, fluorogenic peptide substrate (PFR-AMC), 500 pM enzyme format. The class given is biochemical. The conditions noted are these: 500 pM activated kallikrein, 30 min preincubation, 10 min reaction, room temperature, read-out: Primary Dose Response Assay: Average EC50. The method, then:
Compounds were evaluated for inhibition of the human activated kallikrein enzyme in two formats of an assay employing a fluorogenic peptide substrate. In one assay format, the concentrations of reagents were as follows: 20 mM Tris pH 7.5, 1 mM EDTA, 150 mM sodium chloride, 0.1% PEG-400, 0.1% Triton X-100, 500 pM activated kallikrein enzyme, […] Pro-Phe-Arg-7-amido-4-methylcoumarin (PFR-AMC) substrate. Prior to reaction initiation with substrate, enzyme and inhibitors were preincubated for 30 min at room temperature. After initiation with substrate, reactions were incubated for 10 min at room temperature and fluorescence emission at 460 nm from 380 nm excitation measured with a microplate reader. In another assay format, the concentrations of reagents were as follows: 20 mM Tris pH 7.5, 1 mM EDTA, 150 mM sodium chloride, 0.1% PEG-400, 0.1% Triton X-100, 5 pM activated kallikrein enzyme, 300 uM PFR-AMC substrate. Prior to reaction initiation with substrate, enzyme and inhibitors were preincubated for 30 min at room temperature. After initiation with substrate, reactions were incubated for 18 hr at room temperature and fluorescence emission at 460 nm from 380 nm excitation measured with a microplate reader.

Experiment [2] has as its target T1, plasma kallikrein (Homo sapiens, UniProt P03952).
T1 construct: from tissue; host or cells: sodium citrate collected human plasma
Put plainly: Neat human plasma assay (fluorogenic peptide), contact pathway-activated plasma. The conditions noted are these: read-out: Human Plasma Assay: IC90. The class given is biochemical. The method, then: To analyze inhibition of plasma kallikrein in an ex vivo setting, the potency of compounds was measure in contact pathway-activated plasma assays. In a fluorogenic peptide substrate assay, test compounds dissolved in DMSO were added to sodium citrate collected human or rat plasma in a 96-well microplate. Alternatively, citrated plasma was collected from rats administered the compounds orally or by IV. 10 nM of human FXIIa (Enzyme Research Laboratories) diluted in PKa buffer (20 mM Tris-HCl, pH 7.5, 150 mM NaCl, 1 mM EDTA, 0.100 PEG-8000, and 0.1% Triton X-100) was added to the plasma, followed by the 100 μM of the profluorescent, synthetic plasma kallikrein substrate PFR-AMC (also diluted in PKa buffer). Final plasma concentration in the reaction was […]. Fluorescence was immediately monitored by excitation/emission wavelengths of 360 nm/480 nm respectively over a period of 5 minutes in a microplate reader. The resulting linear increase in fluorescence emission (reflecting PKa proteolysis of PFR-AMC substrate) was fit to extract a proteolytic rate (fluorescent units over time), and this rate was subsequently plotted against compound inhibitor concentration. Resulting plots were fit to a standard 4-parameter IC50/C90 equation to determine min/max values, IC50/90, and slope. All experimental steps were performed at room temperature.

Where [3] appears, read: citrated human plasma, 10 nM human FXIIa activation, 100 μM PFR-AMC, room temperature.

T1 sequence (P03952 391-638 limits assumed): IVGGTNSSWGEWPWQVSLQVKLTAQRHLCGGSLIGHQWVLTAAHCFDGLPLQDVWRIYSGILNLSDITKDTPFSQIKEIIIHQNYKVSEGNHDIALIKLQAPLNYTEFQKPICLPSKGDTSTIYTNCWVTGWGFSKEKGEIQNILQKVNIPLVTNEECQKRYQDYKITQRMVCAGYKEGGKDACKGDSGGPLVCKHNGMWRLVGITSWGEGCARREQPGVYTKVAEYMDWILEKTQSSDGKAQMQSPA
T1 sequence (P03952 20-390 partner limits assumed): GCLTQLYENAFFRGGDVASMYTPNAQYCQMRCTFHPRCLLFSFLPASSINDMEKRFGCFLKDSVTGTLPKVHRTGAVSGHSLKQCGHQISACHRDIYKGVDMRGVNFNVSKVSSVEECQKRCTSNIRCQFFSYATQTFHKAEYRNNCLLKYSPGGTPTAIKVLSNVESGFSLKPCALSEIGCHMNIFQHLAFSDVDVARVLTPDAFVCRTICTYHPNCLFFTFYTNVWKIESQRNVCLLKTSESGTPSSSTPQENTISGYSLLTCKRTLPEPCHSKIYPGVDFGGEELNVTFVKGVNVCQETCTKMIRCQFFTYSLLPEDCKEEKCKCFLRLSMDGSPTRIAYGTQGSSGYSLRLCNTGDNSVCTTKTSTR
human activated kallikrein enzyme, sequence (P03952 391-638 limits assumed): as the sequence (P03952 391-638 limits assumed) above
human activated kallikrein enzyme, sequence (P03952 20-390 partner limits assumed): as the sequence (P03952 20-390 partner limits assumed) above

For the compound `CN1C(=O)CN(c2cc(C3CC3)cc3cc(CNc4cc(NC(=O)[C@H]5C[C@@H]5c5cc(Cl)ccn5)ncn4)nn23)C1=O` (racemic) [Example 57, rac-(1S*,2S*)-2-(4-chloropyridin-2-yl)-N-(6-(((5-cyclopropyl-7-(3-methyl-2,4-dioxoimidazolidin-1-yl)pyrazolo[1,5-a]pyridin-2-yl)methyl)amino)pyrimidin-4-yl)cyclopropane-1-carboxamide], the EC50 in experiment [1] is below 2.5 nM. Moreover, the IC90 in experiment [2] (setting [3]) was in the range of 500 to 5000 nM. On to `O=C(Nc1cc(NCc2cn3nc(C4CC4)ccc3n2)ccn1)[C@H]1C[C@@H]1c1cccc(Cl)c1` [Example 46, (1S,2S)-2-(3-chlorophenyl)-N-(4-(((6-cyclopropylimidazo[1,2-b]pyridazin-2-yl)methyl)amino)pyridin-2-yl)cyclopropane-1-carboxamide], for which the EC50 in experiment [1] was below 2.5 nM. For the same compound, in experiment [2] (setting [3]), the IC90 was 5000 to 65000 nM. Turning to `N#Cc1ccc(Cl)cc1[C@H]1C[C@@H]1C(=O)Nc1cc(NCc2cn3cc(C4CC4)cnc3n2)ccn1` (racemic) [Example 22, rac-(1S*,2S*)-2-(5-chloro-2-cyanophenyl)-N-(4-(((6-cyclopropylimidazo[1,2-a]pyrimidin-2-yl)methyl)amino)pyridin-2-yl)cyclopropane-1-carboxamide], in experiment [1], the EC50 was below 2.5 nM. Moreover, the concentration for an effect of 90% (IC90) in experiment [2] (setting [3]) was 5000 to 65000 nM. The like results for `CN1CCN(c2cc(C3CC3)nn3cc(CNc4cc(NC(=O)[C@H]5C[C@@H]5c5cccc(Cl)c5)ncn4)nc23)CC1` [Example 39, (1S,2S)-2-(3-chlorophenyl)-N-(6-(((6-cyclopropyl-8-(4-methylpiperazin-1-yl)imidazo[1,2-b]pyridazin-2-yl)methyl)amino)pyrimidin-4-yl)cyclopropane-1-carboxamide] were, in that order, below 2.5 nM and 5000 to 65000 nM. Take `Cc1ccnc([C@H]2C[C@@H]2C(=O)Nc2cc(N(C)Cc3cn4cc(C5CC5)cnc4n3)nc(C)n2)n1` [Example 90, (1S,2S)—N-(6-(((6-cyclopropylimidazo[1,2-a]pyrimidin-2-yl)methyl)(methyl)amino)-2-methylpyrimidin-4-yl)-2-(4-methylpyrimidin-2-yl)cyclopropane-1-carboxamide]: the EC50 in experiment [1] is below 2.5 nM. In experiment [2] (setting [3]), the IC90 lay within 5000 to 65000 nM.

With `O=C(Nc1cc(NCc2cc3cc(C4CC4)cnc3s2)ccn1)[C@H]1C[C@@H]1c1cccc(Cl)c1` [Example 23, (1S,2S)-2-(3-chlorophenyl)-N-(4-(((5-cyclopropylthieno[2,3-b]pyridin-2-yl)methyl)amino)pyridin-2-yl)cyclopropane-1-carboxamide], in experiment [1], the EC50 was below 2.5 nM. For the same compound, the concentration for an effect of 90% (IC90) in experiment [2] (setting [3]) fell in the range of 5000 to 65000 nM. As for `Cc1ccnc([C@H]2C[C@@H]2C(=O)Nc2cc(OCc3cn4cc(C5CC5)cnc4n3)cnn2)n1` [Example 94, (1S,2S)—N-(5-((6-cyclopropylimidazo[1,2-a]pyrimidin-2-yl)methoxy)pyridazin-3-yl)-2-(4-methylpyrimidin-2-yl)cyclopropane-1-carboxamide], in experiment [1], the EC50 is below 2.5 nM. Also, the IC90 in experiment [2] (setting [3]) was below 500 nM. `Cc1ccnc([C@H]2C[C@@H]2C(=O)Nc2cc(NCc3cn4cc(C5CC5)nc(N5CC(=O)N(C)C5=O)c4n3)ncn2)n1` (racemic) [Example 80, rac-(1S*,2S*)—N-(6-(((6-cyclopropyl-8-(3-methyl-2,4-dioxoimidazolidin-1-yl)imidazo[1,2-a]pyrazin-2-yl)methyl)amino)pyrimidin-4-yl)-2-(4-methylpyrimidin-2-yl)cyclopropane-1-carboxamide]: in experiment [1], the EC50 is below 2.5 nM. In experiment [2] (setting [3]), the IC90 is below 500 nM.

Take `O=C(Nc1cc(NCc2nc3ncc(C4CC4)cn3n2)ccn1)[C@@H]1C[C@]12CCc1ccc(Cl)cc12` (racemic) [Example 41, rac-(1S*,2S*)-6′-chloro-N-(4-(((6-cyclopropyl-[1,2,4]triazolo[1,5-a]pyrimidin-2-yl)methyl)amino)pyridin-2-yl)-2′,3′-dihydrospiro[cyclopropane-1,1′-indene]-2-carboxamide]: the EC50 in experiment [1] was below 2.5 nM. Moreover, the IC90 in experiment [2] (setting [3]) is 5000 to 65000 nM. Taken in the same sequence, the figures for `CN1C(=O)CN(c2cc(C3CC3)nn3cc(CNc4cc(NC(=O)[C@H]5C[C@@H]5c5cc(Cl)ccn5)ncn4)nc23)C1=O` [Example 63, (1S,2S)-2-(4-chloropyridin-2-yl)-N-(6-(((6-cyclopropyl-8-(3-methyl-2,4-dioxoimidazolidin-1-yl)imidazo[1,2-b]pyridazin-2-yl)methyl)amino)pyrimidin-4-yl)cyclopropane-1-carboxamide] were below 2.5 nM and 500 to 5000 nM. Regarding `Cc1ccnc([C@H]2C[C@@H]2C(=O)Nc2cc(OCc3cc4cc(C5CC5)cc(N5CC(=O)N(C)C5=O)n4n3)cnn2)n1` [Example 100, (1S,2S)—N-(5-((5-cyclopropyl-7-(3-methyl-2,4-dioxoimidazolidin-1-yl)pyrazolo[1,5-a]pyridin-2-yl)methoxy)pyridazin-3-yl)-2-(4-methylpyrimidin-2-yl)cyclopropane-1-carboxamide], the EC50 in experiment [1] is below 2.5 nM. Besides, the IC90 in experiment [2] was below 500 nM. Consider `O=C(Nc1cc(NCc2nc3ncc(C4CC4)cn3n2)ccn1)[C@H]1C[C@@H]1c1cccc(Cl)c1` [Example 31, (1S,2S)-2-(3-chlorophenyl)-N-(4-(((6-cyclopropyl-[1,2,4]triazolo[1,5-a]pyrimidin-2-yl)methyl)amino)pyridin-2-yl)cyclopropane-1-carboxamide], for which the EC50 in experiment [1] was below 2.5 nM. Further, the IC90 in experiment [2] (setting [3]) was in the range of 500 to 5000 nM. Turning to `O=C(Nc1cc(NCc2cc3cc(C4CC4)cc(N4CCCC4=O)n3n2)ncn1)[C@H]1C[C@@H]1c1cccc(Cl)c1` [Example 52, (1S,2S)-2-(3-chlorophenyl)-N-(6-(((5-cyclopropyl-7-(2-oxopyrrolidin-1-yl)pyrazolo[1,5-a]pyridin-2-yl)methyl)amino)pyrimidin-4-yl)cyclopropane-1-carboxamide], the EC50 in experiment [1] fell in the range of 2.5 to 25 nM. Also, the 90% effect concentration (IC90) in experiment [2] (setting [3]) was 500 to 5000 nM. Consider `Cc1ccnc([C@@H]2C[C@H]2C(=O)Nc2cc(N3C[C@@H](O)C[C@@H]3c3cn4cc(C5CC5)cnc4n3)ncn2)c1` (single isomer, unassigned) [Example 74, (1S*,2S*)—N-(6-((2R,4S)-2-(6-cyclopropylimidazo[1,2-a]pyrimidin-2-yl)-4-hydroxypyrrolidin-1-yl)pyrimidin-4-yl)-2-(4-methylpyridin-2-yl)cyclopropane-1-carboxamide], for which, in experiment [1], the EC50 is above 500 nM. Same read-out and setting: to `O=C(Nc1cc(OCc2ccc(-n3ccnc3)cc2)cnn1)[C@H]1C[C@@H]1c1cccc(Cl)c1` (racemic) [Example 12, rac-(1S*,2S*)—N-(5-((4-(1H-imidazol-1-yl)benzyl)oxy)pyridazin-3-yl)-2-(3-chlorophenyl)cyclopropane-1-carboxamide] belongs above 500 nM; to `Cc1ccnc([C@H]2C[C@@H]2C(=O)Nc2cc(NCc3nc4ncc(C5CC5)cn4n3)ncn2)n1` (racemic) [Example 78, rac-(1S*,2S*)—N-(6-(((6-cyclopropyl-[1,2,4]triazolo[1,5-a]pyrimidin-2-yl)methyl)amino)pyrimidin-4-yl)-2-(4-methylpyrimidin-2-yl)cyclopropane-1-carboxamide], 2.5 to 25 nM; to `O=C(Nc1cc(NCc2cn3nc(C4CC4)cc(N4CCOC4=O)c3n2)ncn1)[C@H]1C[C@@H]1c1cccc(Cl)c1` [Example 44, (1S,2S)-2-(3-chlorophenyl)-N-(6-(((6-cyclopropyl-8-(2-oxooxazolidin-3-yl)imidazo[1,2-b]pyridazin-2-yl)methyl)amino)pyrimidin-4-yl)cyclopropane-1-carboxamide], 2.5 to 25 nM. Turning to `O=C1CN(c2cc(C3CC3)cn3nc(CNc4cc(NC(=O)[C@H]5C[C@@H]5c5cc(Cl)ccn5)ncn4)nc23)C(=O)N1` [Example 68, (1S,2S)-2-(4-chloropyridin-2-yl)-N-(6-(((6-cyclopropyl-8-(2,4-dioxoimidazolidin-1-yl)-[1,2,4]triazolo[1,5-a]pyridin-2-yl)methyl)amino)pyrimidin-4-yl)cyclopropane-1-carboxamide], the EC50 in experiment [1] was below 2.5 nM.
